Columns and labels:
colon cancer cells = test: addition of butyrate, apoptosis of colon cancer cells in vitro; type: cell-based, human
Description: The plate of cancer cells containing 3×10^5 cells per well is incubated overnight to allow the cells to adhere. Then, the different concentrations of butyric acid (Sigma, St-Louis, USA) are added to the wells containing the adherent cells and the culture medium, the complete RPMI. After this addition, a 48 hour incubation is done in order to measure the percentage of apoptosis according to the technique described hereinafter.
A dose of 5FU (100 μg/mL) as well as different doses (2 mM and 4 mM) of butyric acid (ba) are added to the cancerous colon cells. Apoptosis is measures after a 48 hour incubation.

human colon cancer = details: mice; cited from earlier work
LS 513 cells = test: apoptosis / cell cycle by flow cytometry with propidium iodide; type: cell-based, human; details: in the presence of intact (live or irradiated) bacteria; dose dependent
Description: A concentration of 5×10^4 cells per mL, with 6 mL per well, is used in order to obtain 3×10^5 cells per sample. The cells are prepared as indicated above. The different products are added to the wells, and an incubation of 48 hours is done. Following the incubation, the supernatants of the cells are collected in different 15 mL tubes and centrifuged at 1500 RPM during 5 minutes. The cellular pellets are then collected by decantation of the supernatant and put on ice. This stage consists in recuperating the cells in suspension. Afterwards, the adherent cellular sheet is washed with 0.5 mL trypsin-EDTA, then 0.2 mL trypsin-EDTA is added to each well to allow the cells to detach when they are incubated for around 8 minutes in the incubator at 37° C. The cells are suspended in 3 mL of complete RPMI 10% FCS to stop the enzymatic activity of trypsin. […] Different peaks are formed due to the differences in fluorescence existing between each phase of the cellular cycle. The more the content of intact DNA is high, the more the fluorescence is high and vice-versa. The program measures the percentage of fluorescence that the large spike forms under the corresponding spike of G0-G1, this spike represents pieces of fragmented DNA, consequence of the cleavage of DNA by different enzymes activated during apoptosis.

| Compound | apoptosis in colon cancer cells in vitro (colon cancer cells) | in vivo growth of human colon cancer (human colon cancer) | efficacy of the anticancer agent (LS 513 cells) |
| --- | --- | --- | --- |
| CCCC(=O)O [butyric acid] | causes apoptosis | inhibits the in vivo growth |  |
| O=c1[nH]cc(F)c(=O)[nH]1 [5FU, 5-fluorouracil] |  |  | considerably increased |
